Data reported in patent US12661308B2, “Antimicrobial AZO compounds and uses thereof” (The Regents Of The University Of Colorado, A Body Corporate, priority 2019, dated 2026).

Key:
[1] = system: S. mutans (ATCC 25175) biofilm; experiment: Detachment study of S. mutans biofilm on monomer-coated polymeric substrates (Example 1); assay type: cell-based, Streptococcus mutans; settings: for detachment of S. mutans biofilm (CFU removed): 50 mg/mL coating solution, light/wash treatment
Protocol: The polymeric substrates were prepared by mixing 54 wt % methyl methacrylate (MMA), 30 wt % polymethylmethacrylate (PMMA, MW ˜35 k), and 16 wt % tetraethylene glycol dimethacrylate (TEGDMA) at 70° C. for 2 hr. After mixing, 1 wt. % azobisisobutyronitrile (AIBN) was added to the formulation as an initiator and mixed.
The mixed formulation was added to circular molds (diameter=6.5 mm) cut from a strip of rubber (thickness=0.9 mm) and pressed between two glass microscope slides. The mold was clamped together and thermally cured at 80° C. for 1.5 hr.
The polymeric substrates were coated as follows. Coating solutions were prepared having the following monomer concentrations (see FIG. 3 for structures of the monomers): 0.5 mg/mL and 50 mg/mL solutions of a phenolic acrylated azobenzene monomer (OH-AAZO), 50 mg/mL acrylated azobenzene monomer (AAZO), 50 mg/mL 4-hydroxyl benzylacrylate (HBA), 50 mg/mL 2-hydroxylethyl methacrylate (HEMA).
The coating solutions included the monomer in N,N′-dimethylformamide (DMF) along with 0.5 mg/mL of AIBN and 0.1 mg/mL of Rhodamine B as an indicator dye. Once mixed, 3 μL of each coating solution was pipetted onto one side of the polymeric substrate and spun at 1000 RPM for 1 min followed by spinning at 6000 RPM for 3 s. The coating was cured under a nail lamp (Melody Susie UV Gel Nail Polish Dryer, Model DR-301C) for at least 15 min before repeating the coating procedure on the other side.
The controlled growth of biofilms varied depending on the bacteria strain. In the case of S. mutans, a BHI agar plate was streaked with S. mutans (ATCC 25175) and allowed to incubate at 37° C. in 5% CO2 for 60 hr to isolate a single bacterial colony. The colony was inoculated in 5 mL of BHI and allowed to incubate statically in the 5% CO2 incubator for 24 hr. The stock solution was diluted 1:50 in a 96-well plate containing the substrates of interest and allowed to incubate in the 5% CO2 incubator for an additional 24 hr.
The detachment study quantified the biofilm grown on each substrate via a series of washes in 1×PBS. The substrate was irradiated using a dental lamp (FlashMax P3 Ortho™, 1900 mW/cm2, wavelength=450-470 nm) on the underside of the vial for a total of ten 3 s irradiations per side. Following the series of washes, the substrate was sonicated for 10 min to remove the residual biofilm on the substrate. The wash solutions were serial diluted, plated, and grown at 37° C. and 5% CO2 to obtain the CFU count.
Images collected from a digital microscope (Zeiss Axioplan II microscope, 630×, step size 0.1 μm) after the substrate and bacteria were treated with BACLIGHT Live/Dead stain are included in FIG. 4.

S. mutans biofilm = S. mutans biofilm growth on coated pit and fissure dental sealants; assay type: cell-based, Streptococcus mutans; settings: coating on pit and fissure sealants
Source text: In some implementations, the azobenzene polymers can be used as an antimicrobial coating on pit and fissure dental sealants. […] Azobenzene coatings can be incorporated into pit and fissure sealants as an anti-bacterial coating to prevent tooth decay.

C=CC(=O)OCc1ccc(O)cc1 [HBA, 4-hydroxybenzyl acrylate]
detachment of S. mutans biofilm (CFU removed) [1]: minimal detachment

C=C(C)C(=O)OCCO [HEMA, 2-hydroxylethyl methacrylate]
detachment of S. mutans biofilm (CFU removed) [1]: minimal detachment

Acrylated azobenzene [AAZO]
S. mutans biofilm growth (S. mutans biofilm): significantly reduced
detachment of S. mutans biofilm (CFU removed) [1]: minimal detachment
S. mutans biofilm on substrate, Live/Dead stain microscopy ([1]; after wash/light treatment): still contained a robust S. mutans biofilm
